# Tested on: ICR mice
# Test: Caffeine sleep deprivation model with pentobarbital-induced sleep
# Type: in vivo, mouse
# Conditions: caffeine 10 mg/kg i.p., pentobarbital 42 mg/kg after 30 minutes
smiles,measurement,value
Cn1c(=O)c2c(ncn2C)n(C)c1=O [caffeine],sleep duration decrease compared to negative control group,"1,000 seconds"
same,sleep onset time increase compared to negative control group,about 50 seconds
